EC50 data for twelve molecules are collected here from patent US11845752B2, “Substituted imidazo[1,5-a]pyrazines for the treatment of hepatitis B” (ALIGOS THERAPEUTICS, INC., priority 2020, dated 2023).

Usually EC50 stands for the concentration giving half of the maximal effect.

This test has as its system HBV. Kind of test: HBV-DNA antiviral assay using HepG2.117 cells (intracellular HBV DNA by qPCR). The settings on record: HBV DNA inhibition, 3 days incubation, read-out: EC50. It is filed as cell-based, HBV genotype D. In short, it runs like this:
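HepG2.117 cells (stably integrated genotype D HBV, Tet-off) seeded without doxycycline to induce pgRNA, then treated next day with 9 concentrations (4-fold dilutions, 2% DMSO) for 3 days at 37 °C. Intracellular HBV DNA quantified by qPCR against standard curve, viability by ATP content; inhibition relative to DMSO control, EC50/EC90/CC50 by non-linear regression.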
A general note: Real-time PCR tracks product formation cycle by cycle.

The mark [1] stands for this setting: Hepatitis B virus, HepG2.117, 72 h.

Like-named read-outs stand apart in the source and are kept apart here.

Take `CC1Cn2c(c(C(=O)NCc3ccccc3-c3nccc(N)n3)n(-c3ccc(OC4CC4)cc3)c2=O)CN1C(=O)c1ccc(Br)c(Cl)c1` (single isomer, unassigned) [Compound 30b]: the EC50 is less than 50 nM. As for `Cc1nnc(-c2ccccc2CNC(=O)c2c3n(c(=O)n2-c2ccc(OC4CC4)cc2)CC(C)N(C(=O)c2ccc(Br)c(C#N)c2)C3)o1` (single isomer, unassigned) [Compound 5a, (6S*)-7-(4-bromo-3-cyano-benzoyl)-2-[4-(cyclopropoxy)phenyl]-6-methyl-N-[[2-(5-methyl-1,3,4-oxadiazol-2-yl)phenyl]methyl]-3-oxo-6,8-dihydro-5H-imidazo[1,5-a]pyrazine-1-carboxamide], under setting [1], the EC50 lay within 500 to 5000 nM. With `CC1Cn2c(c(C(=O)NCc3ccccc3-c3ccccn3)n(-c3ccc(N4CC5(CN(C)C5)C4)cc3)c2=O)CN1C(=O)c1ccc(Br)c(C(F)(F)F)c1` (single isomer, unassigned) [Compound 77b], the EC50 lay in the range of 50 to 500 nM. Turning to `CC1Cn2c(c(C(=O)NCc3ccccc3-c3ccc(N)nn3)n(-c3ccc(OC4CC4)cc3)c2=O)CN1C(=O)c1ccc(Br)c(Cl)c1` (single isomer, unassigned) [Compound 10b, N-[[2-(6-aminopyridazin-3-yl)phenyl]methyl]-7-(4-bromo-3-chloro-benzoyl)-2-[4-(cyclopropoxy)phenyl]-6-methyl-3-oxo-6,8-dihydro-5H-imidazo[1,5-a]pyrazine-1-carboxamide], the concentration giving a half-maximal response (EC50) was in the range of 50 to 500 nM.

Consider `COc1nccc(-c2ccccc2CNC(=O)c2c3n(c(=O)n2-c2ccc(OC4CC4)cc2)CC(C)N(C(=O)c2ccc(Br)c(Cl)c2)C3)n1` (single isomer, unassigned) [Compound 37b], for which the EC50 was less than 50 nM. With `O=C(NCc1ccccc1)c1c2n(c(=O)n1-c1ccc(N3CCOC4(CC4)C3)cc1)CCN(C(=O)c1ccc(Br)c(Cl)c1)C2` [Compound 120, N-benzyl-7-(4-bromo-3-chloro-benzoyl)-2-[4-(4-oxa-7-azaspiro[2.5]octan-7-yl)phenyl]-3-oxo-6,8-dihydro-5H-imidazo[1,5-a]pyrazine-1-carboxamide], the EC50 under setting [1] lay in the range of 50 to 500 nM. On to `C#Cc1cc(C(=O)N2Cc3c(C(=O)NCc4ccccc4-c4ccncn4)n(-c4ccc(OC5CC5)cc4)c(=O)n3CC2C)ccc1Br` (single isomer, unassigned) [Compound 20b], for which the EC50 was 50 to 500 nM. With `Cc1nc2cc(-n3c(C(=O)NCc4ccccc4-c4ccncn4)c4n(c3=O)CC(C)N(C(=O)c3ccc(Br)c(Cl)c3)C4)ccc2o1` (single isomer, unassigned) [Compound 46a], the EC50 under setting [1] was in the range of 50 to 500 nM. As for `CC1Cn2c(c(C(=O)NCc3c(F)cccc3-n3cccn3)n(-c3ccc(OC4CC4)cc3)c2=O)CN1C(=O)c1ccc(Br)c(C(F)(F)F)c1` (single isomer, unassigned) [Compound 25a], the EC50 under setting [1] was in the range of 50 to 500 nM. For `CC1Cn2c(c(C(=O)NCc3ccccc3-c3cccc(N)n3)n(-c3ccc(OC4CC4)cc3)c2=O)CN1C(=O)c1ccc(Br)c(Cl)c1` (single isomer, unassigned) [Compound 23b], the EC50 is less than 50 nM. As for `CC1Cn2c(c(C(=O)NCc3ccccc3-c3ccncn3)n(-c3ccc(OC4CC4)cc3)c2=O)CN1C(=O)c1ccc(Br)c(C(F)F)c1` (single isomer, unassigned) [Compound 16a, 7-[4-bromo-3-(difluoromethyl)benzoyl]-2-[4-(cyclopropoxy)phenyl]-6-methyl-3-oxo-N-[(2-pyrimidin-4-ylphenyl)methyl]-6,8-dihydro-5H-imidazo[1,5-a]pyrazine-1-carboxamide], the EC50 under setting [1] is 50 to 500 nM. With `CC1Cn2c(c(C(=O)NCc3ccccc3-c3ccnc(N)n3)n(-c3ccc(OC4CC4)cc3)c2=O)CN1C(=O)c1ccc(Br)c(Cl)c1` (single isomer, unassigned) [Compound 11a, N-[[2-(2-aminopyrimidin-4-yl)phenyl]methyl]-7-(4-bromo-3-chloro-benzoyl)-2-[4-(cyclopropoxy)phenyl]-6-methyl-3-oxo-6,8-dihydro-5H-imidazo[1,5-a]pyrazine-1-carboxamide], the EC50 under setting [1] was less than 50 nM.
